Test results published in paper PMC7026418, “The kinase polypharmacology landscape of clinical PARP inhibitors” (Scientific Reports, 2020).
Like-named read-outs stand apart in the source and are kept apart here.

Key:
Assay in all cases: biochemical
Set-up in all cases: DiscoveRx KINOMEscan active site-directed competition binding; percent of control kinase bound to immobilised ligand
[1] = biological target: T1, CDKL5 (Homo sapiens, UniProt O76039)
T1 sequence (O76039 1-960): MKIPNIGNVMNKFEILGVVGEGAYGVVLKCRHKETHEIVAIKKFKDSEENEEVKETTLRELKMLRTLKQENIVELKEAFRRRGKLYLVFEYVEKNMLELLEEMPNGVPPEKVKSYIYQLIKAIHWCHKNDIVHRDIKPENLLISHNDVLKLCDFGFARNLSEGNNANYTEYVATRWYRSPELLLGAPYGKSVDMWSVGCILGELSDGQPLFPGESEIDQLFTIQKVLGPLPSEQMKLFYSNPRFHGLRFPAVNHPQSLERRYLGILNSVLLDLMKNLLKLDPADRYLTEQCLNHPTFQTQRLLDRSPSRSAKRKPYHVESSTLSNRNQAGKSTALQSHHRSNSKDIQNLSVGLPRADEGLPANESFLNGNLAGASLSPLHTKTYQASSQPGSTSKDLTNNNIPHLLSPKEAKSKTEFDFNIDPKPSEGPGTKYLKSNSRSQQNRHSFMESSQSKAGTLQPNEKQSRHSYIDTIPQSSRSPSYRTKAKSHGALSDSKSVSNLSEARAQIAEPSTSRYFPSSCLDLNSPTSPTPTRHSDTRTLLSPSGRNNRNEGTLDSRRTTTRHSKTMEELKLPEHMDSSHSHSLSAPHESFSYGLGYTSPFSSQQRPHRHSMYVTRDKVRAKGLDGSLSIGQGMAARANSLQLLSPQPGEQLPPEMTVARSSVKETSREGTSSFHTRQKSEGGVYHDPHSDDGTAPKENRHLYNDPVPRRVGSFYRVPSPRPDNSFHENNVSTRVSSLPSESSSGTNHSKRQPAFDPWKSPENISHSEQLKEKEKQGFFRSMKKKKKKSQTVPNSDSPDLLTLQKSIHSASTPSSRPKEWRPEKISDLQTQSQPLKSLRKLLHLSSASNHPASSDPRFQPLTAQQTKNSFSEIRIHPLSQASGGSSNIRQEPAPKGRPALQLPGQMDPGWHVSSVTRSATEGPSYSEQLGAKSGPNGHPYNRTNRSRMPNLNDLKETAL

[2] = biological target: T2, CTK (Homo sapiens, UniProt P42679)
T2 construct: gene MATK
T2 sequence (P42679 1-507): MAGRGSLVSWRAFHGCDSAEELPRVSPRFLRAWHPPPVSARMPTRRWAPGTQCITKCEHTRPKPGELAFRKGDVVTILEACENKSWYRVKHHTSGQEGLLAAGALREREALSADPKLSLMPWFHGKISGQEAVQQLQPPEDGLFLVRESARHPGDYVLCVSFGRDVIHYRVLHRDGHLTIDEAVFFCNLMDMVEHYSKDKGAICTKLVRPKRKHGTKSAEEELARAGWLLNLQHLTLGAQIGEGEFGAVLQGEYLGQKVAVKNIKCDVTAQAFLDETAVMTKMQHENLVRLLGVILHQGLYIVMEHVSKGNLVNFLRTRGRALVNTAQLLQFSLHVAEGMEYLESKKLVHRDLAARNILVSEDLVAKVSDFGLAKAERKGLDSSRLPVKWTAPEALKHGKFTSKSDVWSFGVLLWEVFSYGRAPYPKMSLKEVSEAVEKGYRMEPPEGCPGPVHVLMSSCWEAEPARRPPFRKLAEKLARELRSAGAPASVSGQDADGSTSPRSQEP

[3] = biological target: T3, TSSK3 (Homo sapiens, UniProt Q96PN8)
T3 sequence (Q96PN8 1-268): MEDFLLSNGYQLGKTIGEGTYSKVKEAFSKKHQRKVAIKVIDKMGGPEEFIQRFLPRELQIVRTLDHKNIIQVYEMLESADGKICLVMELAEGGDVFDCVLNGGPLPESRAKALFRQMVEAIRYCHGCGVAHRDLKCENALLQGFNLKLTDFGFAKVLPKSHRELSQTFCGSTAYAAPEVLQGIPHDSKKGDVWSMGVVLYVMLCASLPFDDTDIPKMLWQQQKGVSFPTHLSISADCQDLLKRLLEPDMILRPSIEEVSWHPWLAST

[4] = biological target: T4, PFTK1 (Homo sapiens, UniProt O94921)
T4 construct: gene CDK14
T4 sequence (O94921 whole entry): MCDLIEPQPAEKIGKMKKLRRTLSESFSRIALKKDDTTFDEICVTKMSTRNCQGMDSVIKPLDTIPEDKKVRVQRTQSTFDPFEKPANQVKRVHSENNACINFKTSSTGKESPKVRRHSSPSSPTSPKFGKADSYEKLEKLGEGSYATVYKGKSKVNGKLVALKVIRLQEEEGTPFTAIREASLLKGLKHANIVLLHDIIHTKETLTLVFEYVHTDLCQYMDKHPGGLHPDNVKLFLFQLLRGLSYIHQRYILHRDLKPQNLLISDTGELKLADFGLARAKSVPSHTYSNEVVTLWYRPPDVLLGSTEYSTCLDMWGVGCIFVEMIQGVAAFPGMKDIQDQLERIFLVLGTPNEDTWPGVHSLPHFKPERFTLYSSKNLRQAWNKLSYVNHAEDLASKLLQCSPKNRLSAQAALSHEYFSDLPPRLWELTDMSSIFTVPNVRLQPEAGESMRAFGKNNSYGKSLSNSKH

[5] = biological target: T5, PIP5K2C (Homo sapiens, UniProt Q8TBX8)
T5 construct: gene PIP4K2C
T5 sequence (Q8TBX8 1-421): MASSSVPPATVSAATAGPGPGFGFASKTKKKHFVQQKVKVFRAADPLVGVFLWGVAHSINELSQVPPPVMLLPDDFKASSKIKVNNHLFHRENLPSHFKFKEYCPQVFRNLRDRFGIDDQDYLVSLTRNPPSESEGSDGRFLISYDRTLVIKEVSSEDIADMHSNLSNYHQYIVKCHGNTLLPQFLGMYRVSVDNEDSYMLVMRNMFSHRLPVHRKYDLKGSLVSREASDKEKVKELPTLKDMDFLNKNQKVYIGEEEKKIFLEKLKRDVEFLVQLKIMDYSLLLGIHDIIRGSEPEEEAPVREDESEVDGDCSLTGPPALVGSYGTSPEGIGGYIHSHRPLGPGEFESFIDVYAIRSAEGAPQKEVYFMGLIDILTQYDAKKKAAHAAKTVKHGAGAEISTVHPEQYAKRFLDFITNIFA

[6] = biological target: T6, MEK4 (Homo sapiens, UniProt P45985)
T6 construct: gene MAP2K4
T6 sequence (P45985 1-399): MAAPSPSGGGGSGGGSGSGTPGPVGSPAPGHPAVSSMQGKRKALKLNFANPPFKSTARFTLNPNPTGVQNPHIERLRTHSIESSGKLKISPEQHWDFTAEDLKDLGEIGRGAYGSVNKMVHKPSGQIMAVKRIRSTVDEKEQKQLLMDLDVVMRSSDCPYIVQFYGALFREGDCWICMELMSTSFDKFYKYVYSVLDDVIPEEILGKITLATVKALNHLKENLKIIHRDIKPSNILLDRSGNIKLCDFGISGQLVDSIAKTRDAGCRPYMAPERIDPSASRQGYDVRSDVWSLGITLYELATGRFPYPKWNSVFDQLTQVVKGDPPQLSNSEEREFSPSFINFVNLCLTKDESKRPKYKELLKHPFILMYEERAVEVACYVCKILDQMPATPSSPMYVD

[7] = read-out: Talazoparib (BMN 673) / %Ctrl @ 10000nM
[8] = read-out: Olaparib / %Ctrl @ 10000nM
[9] = read-out: Niraparib (MK-4827) / %Ctrl @ 10000nM
[10] = read-out: Rucaparib / %Ctrl @ 10000nM, binding competition, % of control

SMILES: Cn1ncnc1[C@H]1c2n[nH]c(=O)c3cc(F)cc(c23)N[C@@H]1c1ccc(F)cc1 [Talazoparib]
- percent of control binding at 10 µM [1, 7]: 100%
- percent of control binding at 10 µM [2, 7]: 78%
- percent of control binding at 10 µM [3, 7]: 84%
- percent of control binding at 10 µM [4, 7]: 89%
- percent of control binding at 10 µM [5, 7]: 100%
- percent of control binding at 10 µM [6, 7]: 99%

SMILES: O=C(c1cc(Cc2n[nH]c(=O)c3ccccc23)ccc1F)N1CCN(C(=O)C2CC2)CC1 [Olaparib]
- percent of control binding at 10 µM [1, 8]: 98%
- percent of control binding at 10 µM [2, 8]: 96%
- percent of control binding at 10 µM [3, 8]: 89%
- percent of control binding at 10 µM [4, 8]: 100%
- percent of control binding at 10 µM [5, 8]: 98%
- percent of control binding at 10 µM [6, 8]: 80%

SMILES: NC(=O)c1cccc2cn(-c3ccc([C@@H]4CCCNC4)cc3)nc12 [Niraparib]
- percent of control binding at 10 µM [1, 9]: 86%
- percent of control binding at 10 µM [2, 9]: 100%
- percent of control binding at 10 µM [3, 9]: 91%
- percent of control binding at 10 µM [4, 9]: 88%
- percent of control binding at 10 µM [5, 9]: 78%
- percent of control binding at 10 µM [6, 9]: 82%

SMILES: CNCc1ccc(-c2[nH]c3cc(F)cc4c3c2CCNC4=O)cc1 [Rucaparib]
- percent of control binding at 10 µM [1, 10]: 30%
- percent of control binding at 10 µM [2, 10]: 76%
- percent of control binding at 10 µM [3, 10]: 0%
- percent of control binding at 10 µM [4, 10]: 86%
- percent of control binding at 10 µM [5, 10]: 83%
- percent of control binding at 10 µM [6, 10]: 69%
